Assay results published in patent US4738986A, “N-(3-phenoxycinnamyl)acetohydroxamic acid” (Burroughs Wellcome Co., priority 1985, dated 1988).

Legend:
Cyclooxygenase (CO) = molecular target: T1, Cyclooxygenase (CO) (Homo sapiens, UniProt P23219); assay: In vitro inhibition of cyclooxygenase (CO): thromboxane release from arachidonic acid in leukocyte homogenate, radioimmunoassay; format: biochemical; settings: volunteers' blood, 5 μM arachidonic acid, 37°, 5 minutes, thromboxane B4 RIA
T1 construct: The leukocytes were homogenised and 5 μM arachidonic acid added; endogenous in cells; host or cells: leukocytes from blood of normal aspirin-free volunteers, separated from red cells and platelets by centrifugation, homogenised
Experimental: (§1) In vitro inhibition of 5-lipoxygenase (LO) and Cyclooxygenase (CO)
(§2) Blood from normal aspirin-free volunteers was centrifuged to separate leukocytes from red cells and platelets. The leukocytes were homogenised and 5 μM arachidonic acid added, followed by incubation at 37° for 5 minutes. The reaction was stopped by boiling. Radioimmunoassay was conducted for leukotriene B4 (an LO product) and […] (a CO product). Results were calculated as IC50 μM activity against each enzyme and as listed below.

5-lipoxygenase (LO) = molecular target: T2, 5-lipoxygenase (LO) (Homo sapiens, UniProt P09917); assay: In vitro inhibition of 5-lipoxygenase (LO): leukotriene B4 from arachidonic acid in leukocyte homogenate, radioimmunoassay; format: biochemical; settings: volunteers' blood, 5 μM arachidonic acid, 37°, 5 minutes, leukotriene B4 RIA
T2 construct: The leukocytes were homogenised and 5 μM arachidonic acid added; endogenous in cells; host or cells: leukocytes from blood of normal aspirin-free volunteers, separated from red cells and platelets by centrifugation, homogenised
T2 sequence (P09917 1-674): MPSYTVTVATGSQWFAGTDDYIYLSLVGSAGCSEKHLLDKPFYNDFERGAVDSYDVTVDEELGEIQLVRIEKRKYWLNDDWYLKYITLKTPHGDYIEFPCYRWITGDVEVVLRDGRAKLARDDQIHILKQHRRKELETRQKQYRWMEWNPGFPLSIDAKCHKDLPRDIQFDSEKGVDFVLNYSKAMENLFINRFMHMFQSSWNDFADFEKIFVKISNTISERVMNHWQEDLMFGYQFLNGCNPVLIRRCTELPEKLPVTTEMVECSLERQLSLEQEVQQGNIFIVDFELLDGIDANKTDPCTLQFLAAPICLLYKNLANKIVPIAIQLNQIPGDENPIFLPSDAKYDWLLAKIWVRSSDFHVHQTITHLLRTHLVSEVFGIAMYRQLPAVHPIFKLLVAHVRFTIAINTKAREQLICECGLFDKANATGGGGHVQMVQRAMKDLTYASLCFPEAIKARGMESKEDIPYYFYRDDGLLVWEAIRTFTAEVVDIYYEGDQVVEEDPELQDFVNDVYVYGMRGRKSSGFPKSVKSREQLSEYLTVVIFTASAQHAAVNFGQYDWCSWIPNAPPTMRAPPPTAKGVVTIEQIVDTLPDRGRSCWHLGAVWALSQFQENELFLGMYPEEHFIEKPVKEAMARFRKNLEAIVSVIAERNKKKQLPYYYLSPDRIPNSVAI
Experimental: as §1, §2

T1 sequence (P23219 24-599): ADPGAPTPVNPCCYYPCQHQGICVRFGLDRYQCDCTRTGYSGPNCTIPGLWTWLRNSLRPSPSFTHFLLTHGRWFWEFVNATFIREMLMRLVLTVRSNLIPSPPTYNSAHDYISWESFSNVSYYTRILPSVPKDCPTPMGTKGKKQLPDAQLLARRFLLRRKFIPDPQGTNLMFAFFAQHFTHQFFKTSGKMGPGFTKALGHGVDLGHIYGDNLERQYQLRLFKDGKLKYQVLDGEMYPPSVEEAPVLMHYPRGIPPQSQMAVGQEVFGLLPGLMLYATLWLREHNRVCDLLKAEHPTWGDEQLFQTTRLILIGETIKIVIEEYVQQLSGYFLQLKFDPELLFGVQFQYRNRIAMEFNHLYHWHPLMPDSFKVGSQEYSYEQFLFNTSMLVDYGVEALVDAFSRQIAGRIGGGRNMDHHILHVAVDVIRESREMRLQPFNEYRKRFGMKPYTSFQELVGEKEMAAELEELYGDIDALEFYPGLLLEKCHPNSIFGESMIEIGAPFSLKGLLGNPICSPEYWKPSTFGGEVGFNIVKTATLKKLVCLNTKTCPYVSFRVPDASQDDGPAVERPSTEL

Question: Which results are given for “3-Phenoxy-N-methylcinnamohydroxamic Acid [Example 1]”?
Answer: IC50 (Cyclooxygenase (CO)): 3 µM; IC50 (5-lipoxygenase (LO)): < 0.1 µM
